Six compounds from patent US20220323406A1, “METHODS AND COMPOSITIONS FOR DIFFERENTIATING STEM CELLS” (Massachusetts Institute of Technology, priority 2019, published 2022) can be followed below.

SMILES strings stand for the structures.

Assay [1] has as its system ENR+CD organoids (ISC to Paneth cell differentiation). Put plainly: Primary screen: basal (non-stimulated) lysozyme secretion LYZ.NS, 2.5-D 384-well ENR+CD organoid differentiation. Format: cell-based, mouse. The following applies: primary screen; for Z.LYZ.NS: standard z score. The source says: (§1) High-throughput screening.
Assay [2] has the same test system. Put plainly: Primary screen: CCh-stimulated lysozyme secretion LYZ.S, 2.5-D 384-well ENR+CD organoid differentiation. Format: cell-based, mouse. As to conditions: primary screen.
Source text: as §1

The subject of another assay is ENR+CD organoids. Put plainly: Primary screen: ATP (CellTiter-Glo 3D, CTG) cell number/viability, 2.5-D 384-well ENR+CD organoids.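 As to all read-outs here: compounds given at plating and again on day 3 over a 6-day differentiation from ENR+CV stem-cell-enriched precursors, ATP measured on day 6, plate median as control.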 The following applies: primary screen; for Z.CTG: standard z score. On the technique in general: Cellular ATP, detected with luciferase, serves as a proxy for viable cell number.

On to `CO[C@H]1C[C@@H]2CC[C@@H](C)[C@@](O)(O2)C(=O)C(=O)N2CCCC[C@H]2C(=O)O[C@H]([C@H](C)C[C@@H]2CC[C@@H](OCCO)[C@H](OC)C2)CC(=O)[C@H](C)/C=C(\C)[C@@H](O)[C@@H](OC)C(=O)[C@H](C)C[C@H](C)/C=C/C=C/C=C/1C` [Everolimus (RAD001)], for which the Dose.FC.LYZ.NS in assay [1] (dose 0.08 uM) is 0.068 log2 fold change; in assay [1] (dose 0.40 uM), 0.110 log2 fold change; in assay [1] (dose 2.00 uM), −0.003 log2 fold change; in assay [1] (dose 10.00 uM) it was −0.024 log2 fold change. In addition, the Z.LYZ.NS in assay [1] (dose 0.08 uM) is reported as 0.590; in assay [1] (dose 0.40 uM), 0.956; in assay [1] (dose 2.00 uM) it was −0.030; in assay [1] (dose 10.00 uM), −0.210. Moreover, the Dose.FC.LYZ.S is reported as −0.012 log2 fold change in assay [2] (dose 0.08 uM), −0.007 log2 fold change in assay [2] (dose 0.40 uM), −0.039 log2 fold change in assay [2] (dose 2.00 uM) and −0.096 log2 fold change in assay [2] (dose 10.00 uM). Further, the Dose.FC.CTG is listed as 0.392 log2 fold change in the assay on ENR+CD organoids (dose 0.08 uM), 0.127 log2 fold change with ENR+CD organoids (dose 0.40 uM), 0.132 log2 fold change in the assay with ENR+CD organoids (dose 2.00 uM) and −0.111 log2 fold change in the assay with ENR+CD organoids (dose 10.00 uM). The Z.CTG is 0.936 with ENR+CD organoids (dose 0.08 uM), 0.304 in the assay with ENR+CD organoids (dose 0.40 uM), 0.314 in the assay on ENR+CD organoids (dose 2.00 uM) and −0.266 in the assay with ENR+CD organoids (dose 10.00 uM).
Regarding `Cc1nc(C(=O)NCC(=O)O)c(O)c2ccc(Oc3ccccc3)cc12` [FG-4592], the Dose.FC.LYZ.NS in assay [1] (dose 0.08 uM) amounted to 0.077 log2 fold change; in assay [1] (dose 0.40 uM), 0.170 log2 fold change; in assay [1] (dose 2.00 uM), 0.094 log2 fold change; in assay [1] (dose 10.00 uM) it was 0.030 log2 fold change. Further, the Z.LYZ.NS in assay [1] (dose 0.08 uM) is on record as 0.673; in assay [1] (dose 0.40 uM), 1.484; in assay [1] (dose 2.00 uM) it was 0.822; in assay [1] (dose 10.00 uM) it was 0.265. Further, the Dose.FC.LYZ.S in assay [2] (dose 0.08 uM) was 0.083 log2 fold change; in assay [2] (dose 0.40 uM), 0.234 log2 fold change; in assay [2] (dose 2.00 uM), 0.152 log2 fold change; in assay [2] (dose 10.00 uM), 0.071 log2 fold change. Besides, the Dose.FC.CTG was 0.327 log2 fold change in the assay on ENR+CD organoids (dose 0.08 uM), 0.284 log2 fold change with ENR+CD organoids (dose 0.40 uM), 0.290 log2 fold change in the assay with ENR+CD organoids (dose 2.00 uM) and 0.238 log2 fold change in the assay on ENR+CD organoids (dose 10.00 uM).
On to `CC1=C(C(=O)OC2CCCCC2)C(c2ccc([N+](=O)[O-])cc2)C2=C(CC(C)(C)CC2=O)N1` (stereo not shown) [FLI-06], for which the Dose.FC.LYZ.NS in assay [1] (dose 0.08 uM) is reported as 0.050 log2 fold change; in assay [1] (dose 0.40 uM), −0.026 log2 fold change; in assay [1] (dose 2.00 uM) it was −0.054 log2 fold change; in assay [1] (dose 10.00 uM), −0.140 log2 fold change. Besides, the Z.LYZ.NS was 0.439 in assay [1] (dose 0.08 uM), −0.230 in assay [1] (dose 0.40 uM), −0.466 in assay [1] (dose 2.00 uM) and −1.216 in assay [1] (dose 10.00 uM). Besides, the Dose.FC.LYZ.S in assay [2] (dose 0.08 uM) is on record as 0.079 log2 fold change; in assay [2] (dose 0.40 uM), 0.010 log2 fold change; in assay [2] (dose 2.00 uM) it was −0.077 log2 fold change; in assay [2] (dose 10.00 uM), −0.170 log2 fold change. In addition, the Dose.FC.CTG is 0.089 log2 fold change in the assay on ENR+CD organoids (dose 0.08 uM), 0.095 log2 fold change in the assay on ENR+CD organoids (dose 0.40 uM), 0.076 log2 fold change in the assay with ENR+CD organoids (dose 2.00 uM) and −0.343 log2 fold change in the assay with ENR+CD organoids (dose 10.00 uM). Also, the Z.CTG in the assay on ENR+CD organoids (dose 0.08 uM) was 0.213; in the assay with ENR+CD organoids (dose 0.40 uM), 0.226; with ENR+CD organoids (dose 2.00 uM), 0.182; in the assay on ENR+CD organoids (dose 10.00 uM) it was −0.819.
Regarding `CCOC(=O)C1=C(C)NC(C)=C(C(=O)OC)C1c1cccc(Cl)c1Cl` (stereo not shown) [Felodipine], the Dose.FC.LYZ.NS in assay [1] (dose 0.08 uM) is recorded as 0.001 log2 fold change; in assay [1] (dose 0.40 uM), −0.033 log2 fold change; in assay [1] (dose 2.00 uM), 0.002 log2 fold change; in assay [1] (dose 10.00 uM), −0.056 log2 fold change. Further, the Z.LYZ.NS in assay [1] (dose 0.08 uM) is 0.010; in assay [1] (dose 0.40 uM) it was −0.284; in assay [1] (dose 2.00 uM) it was 0.017; in assay [1] (dose 10.00 uM) it was −0.487. The Dose.FC.LYZ.S was 0.008 log2 fold change in assay [2] (dose 0.08 uM), −0.042 log2 fold change in assay [2] (dose 0.40 uM), −0.003 log2 fold change in assay [2] (dose 2.00 uM) and −0.067 log2 fold change in assay [2] (dose 10.00 uM). For the same compound, the Dose.FC.CTG is −0.078 log2 fold change in the assay with ENR+CD organoids (dose 0.08 uM), −0.319 log2 fold change in the assay with ENR+CD organoids (dose 0.40 uM), 0.011 log2 fold change in the assay with ENR+CD organoids (dose 2.00 uM) and 0.032 log2 fold change in the assay with ENR+CD organoids (dose 10.00 uM).
In the case of `CCOC(=O)c1ccc(NC2CCCCC2)c(N)c1` [Ferrostatin-1 (Fer-1)], the Dose.FC.LYZ.NS in assay [1] (dose 0.08 uM) is listed as 0.108 log2 fold change; in assay [1] (dose 0.40 uM) it was 0.116 log2 fold change; in assay [1] (dose 2.00 uM) it was 0.070 log2 fold change; in assay [1] (dose 10.00 uM), 0.013 log2 fold change. Further, the Z.LYZ.NS is 0.944 in assay [1] (dose 0.08 uM), 1.012 in assay [1] (dose 0.40 uM), 0.610 in assay [1] (dose 2.00 uM) and 0.116 in assay [1] (dose 10.00 uM). Also, the Dose.FC.LYZ.S was 0.120 log2 fold change in assay [2] (dose 0.08 uM), 0.207 log2 fold change in assay [2] (dose 0.40 uM), 0.092 log2 fold change in assay [2] (dose 2.00 uM) and −0.018 log2 fold change in assay [2] (dose 10.00 uM). In addition, the Dose.FC.CTG is 0.312 log2 fold change in the assay on ENR+CD organoids (dose 0.08 uM), 0.453 log2 fold change in the assay with ENR+CD organoids (dose 0.40 uM), 0.215 log2 fold change with ENR+CD organoids (dose 2.00 uM) and −0.046 log2 fold change in the assay on ENR+CD organoids (dose 10.00 uM). For the same compound, the Z.CTG with ENR+CD organoids (dose 0.08 uM) was 0.745; in the assay with ENR+CD organoids (dose 0.40 uM), 1.082; in the assay with ENR+CD organoids (dose 2.00 uM), 0.514; in the assay with ENR+CD organoids (dose 10.00 uM) it was −0.109.
`CCCCCCCCc1ccc(CCC(N)(CO)CO)cc1.Cl` [Fingolimod (FTY720) HCl]: the Dose.FC.LYZ.NS was −0.054 log2 fold change in assay [1] (dose 0.08 uM), 0.071 log2 fold change in assay [1] (dose 0.40 uM), 0.021 log2 fold change in assay [1] (dose 2.00 uM) and −0.225 log2 fold change in assay [1] (dose 10.00 uM). In addition, the Z.LYZ.NS in assay [1] (dose 0.08 uM) is on record as −0.471; in assay [1] (dose 0.40 uM), 0.616; in assay [1] (dose 2.00 uM), 0.186; in assay [1] (dose 10.00 uM), −1.961. Moreover, the Dose.FC.LYZ.S in assay [2] (dose 0.08 uM) is listed as −0.046 log2 fold change; in assay [2] (dose 0.40 uM), 0.077 log2 fold change; in assay [2] (dose 2.00 uM), −0.060 log2 fold change; in assay [2] (dose 10.00 uM), −0.362 log2 fold change. In addition, the Dose.FC.CTG in the assay on ENR+CD organoids (dose 0.08 uM) was −0.080 log2 fold change; with ENR+CD organoids (dose 0.40 uM) it was 0.103 log2 fold change; in the assay with ENR+CD organoids (dose 2.00 uM) it was −0.468 log2 fold change; in the assay with ENR+CD organoids (dose 10.00 uM), −1.304 log2 fold change. The Z.CTG is on record as −0.191 in the assay with ENR+CD organoids (dose 0.08 uM), 0.245 in the assay with ENR+CD organoids (dose 0.40 uM), −1.119 in the assay on ENR+CD organoids (dose 2.00 uM) and −3.116 in the assay with ENR+CD organoids (dose 10.00 uM).
